Common to all, as to assay: thermal shift titration (SYPRO Orange), Hill fit
Format in all cases: binding
Conditions in all cases: read-out: Apparent KD

The target in experiment [1] is T1, eYfnI (YfnI) (Bacillus subtilis, UniProt Q797B3).
T1 construct: gene ltaS1; extracellular catalytic domain (borders not given), N-terminal 6His tag removed by AcTEV; E. coli Rosetta; pProEX-eYfnI
The source says:
(§1) thermal shift titration (SYPRO Orange), Hill fit on eYfnI (YfnI)

The target of experiment [2] is T2, eYfnI (YfnI) (Bacillus subtilis, UniProt Q797B3, T297A).
T2 construct: gene ltaS1; extracellular catalytic domain (borders not given), N-terminal 6His tag removed by AcTEV; E. coli Rosetta; pProEX-eYfnI
T2 sequence (Q797B3 215-639 T297A): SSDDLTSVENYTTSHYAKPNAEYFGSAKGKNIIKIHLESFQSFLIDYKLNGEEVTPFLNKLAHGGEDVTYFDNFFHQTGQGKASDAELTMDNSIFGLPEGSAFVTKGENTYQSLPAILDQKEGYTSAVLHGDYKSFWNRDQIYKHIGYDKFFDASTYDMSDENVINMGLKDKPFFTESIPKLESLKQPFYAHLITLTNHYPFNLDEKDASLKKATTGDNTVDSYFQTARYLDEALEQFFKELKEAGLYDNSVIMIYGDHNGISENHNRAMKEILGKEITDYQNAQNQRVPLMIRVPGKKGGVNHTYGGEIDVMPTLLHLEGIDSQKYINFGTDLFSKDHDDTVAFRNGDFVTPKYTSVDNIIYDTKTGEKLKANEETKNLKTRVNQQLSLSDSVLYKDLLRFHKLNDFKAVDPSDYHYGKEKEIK
Text: as §1

The target in experiment [3] is T3, eYfnI (YfnI) (Bacillus subtilis, UniProt Q797B3, T297D).
T3 construct: gene ltaS1; extracellular catalytic domain (borders not given), N-terminal 6His tag removed by AcTEV; E. coli Rosetta; pProEX-eYfnI
T3 sequence (Q797B3 215-639 T297D): as the sequence (Q797B3 215-639 T297A) above, with A83D counted along it
Text: as §1

pKd: −log10 of the molar value.

T1 sequence (Q797B3 215-639): as the sequence (Q797B3 215-639 T297A) above, with A83T counted along it

The term pKd denotes −log10 of the Kd, conventionally taken in molar units. Consider `O=P(O)(O)OCC(O)CO` (stereo not drawn) [GroP], for which the pKd in experiment [1] was 2.54; in experiment [2], 2.10; in experiment [3], 2.27.

These data come from PMC6255753, “Investigation of the phosphorylation of Bacillus subtilis LTA synthases by the serine/threonine kinase PrkC” (Scientific Reports, 2018).
